According to patent US20230340012A1, “NATURAL AND SYNTHETIC COMPOUNDS FOR TREATING CANCER AND OTHER DISEASES” (PACIFIC ARROW LIMITED, priority 2009, published 2023):
Several values for one entry are separate records, joined by “and”; a condition that tells them apart may be missing. Equal values may be shown once.

Assays:
[1] = test system: Capan cells (pancreas carcinoma); assay: Agonist activity of anti-DR5 antibody with Tig-R in Capan cells, MTT; type: cell-based, human
Experimental: Capan cells (pancreas carcinoma) were cultured in RPMI1640 medium supplemented with 10% FBS, antibiotics (Pen Strep) and L-Glutamine. Cells were incubated in a 37° C., 5% CO2 incubator.
Antibody: Antibody against Human TRAIL R2/TNFRSF 10B, (from R&D Systems cat# MAB631-100).
Treatment. Cells in log-growth phase were used. Cells were plated in 96-welled plate with 10 K/well 1-2 days before treatment.
Antibody are serially diluted with medium before adding to culture and incubated for 2 days.
After a treatment for 2 days, the quantity of live cells is then determined with MTT assay*. The percentage of cell growth with drugs was determined by comparing to the no-drug (DMSO) control.

[2] = test system: DR5 (TNFRSF10B) in HepG2 cells; assay: DR5 Western blot, HepG2 cells; type: cell-based, human; settings: 2 days
Experimental: (§1) A. Cells and drug-treatment: HepG2 cells (liver cancer cells), CAPAN cells, ES2 cells (Ovary cell) were cultured in DMEM medium with 10% FBS, antibiotics (Pen Strep) and L-Glutamine in a 37° C., 5% CO2 incubator. Cells in log-growth phase were treated with Tig-R (10 ug/ml), Tig-S (4 ug/ml) or DMSO (as control) for 2 days.
(§2) B. Total cell protein extraction: Drug-treated cells were collected, pelleted with centrifugation. The cell pellet was extracted with SDS-Sample buffer (containing PMSF and protease inhibitors cocktail). About 0.1 gram cell pellet was extracted in 1 ml of extraction buffer. The cell extract was then incubated in boiling water bath for 6 minutes with occasionally vortexing. The protein extract was immediately frozen in -80° C. before used.
(§3) C. SDS gel electrophoresis: 10-20 ug of protein sample was loaded into each lane of a 10% SDS gel. Electrophoresis was conducted with 100 volt constant for 2 hours.
(§4) D. Western Blot: Separated proteins from SDS gel were transferred to a nitrocellulose membrane, which was blocked with 5% non-fat dry milk. The membrane was then exposed to 1st antibody (anti-TNFRSF10B) over night, then washed. The membrane was then incubated in 2nd antibody (anti-mouse-AP conjugated) for an hour, then washed. The immuno-bands were developed with BCIP/NBT substrate.
(§5) E. Another SDS gel with same sample loading was stained with Coomassie Brilliant Blue (CBB) for protein staining.
(§6) F. Determination of Western blot band intensity: The band-images of Western blot were captured with a digital camera and the intensity of bands was determined using “Image J” software.

[3] = test system: Jurkat cells; assay: Agonist activity of anti-DR5 antibody with Tig-R in Jurkat cells, MTT; type: cell-based, human
Experimental: Experiment 44: Agonist activity of […] anti-DR5 antibody with Tig-R in Jurkat cells Jurkat cells (Human Acute T-cell leukemia) were cultured in RPMI1640 medium with 10% FBS, antibiotics (Pen Strep) and L-Glutamine in a 37C, 5% CO2 incubator. Cells in log-growth phase (about 0.5 million cells per ml) were treated with antibody (AB) or/and Tig-R. The antibody is Human TRAIL R2/TNFRSF 10B Antibody from R&D (MAB631-100). Treatment time is 2 days. Inhibition of cell growth after treatment was determined by MTT assay.
Conditions for combination studies: Tig-R (2.5 ug/ml) was added together with AB (2-8 ng/ml). Cells

[4] = test system: DR5 (TNFRSF10B) in ES2 cells; assay: Induction of DR5 in ES2 cells, Western blot; type: cell-based, human
Experimental: 1). Cells and drug-treatment: ES2 cells (Ovarian cancer cells) were cultured in RPMI1640 medium with 10% FBS, antibiotics (Pen Strep) and L-Glutamine in a 37° C., 5% CO2 incubator. Cells in log-growth phase were treated with Tig-R (10 ug/ml), or DMSO (as control) for 2 days.
as §2, with “2).” for “B.”
3). SDS gel electrophoresis: 10-20 ug of protein sample was loaded into each lane of a 10% SDS gel. Electrophoresis was conducted with 100 volt constant for 2 hours.
as §4, with “4).” for “D.”
5. Another SDS gel with same protein loading was stained with Coomassie Brilliant Blue (CBB) for protein staining.
as §1, §2, §3, §4, §5, §6

[5] = test system: Swiss3T3 cells; assay: MTT cytotoxicity, Swiss3T3 mouse normal fibroblast; type: cell-based; settings: preliminary results
Experimental: Swiss3T3 cells are mouse normal fibroblast which were used in this experiment to compare with ES2 (human ovarian cancer) in Tig-R cytotoxicity determination.
MTT Assay. The procedure for MTT assay followed the method described by Carmichael et al. (1987) with modifications. The cells were seeded into a 96-well plate at for 24 hours before drug-treatment. The cells were then exposed to the drugs for 48, 72, or 96 hours. After the drug-treatment, MTT (0.5 mg/mL) was added to cultures and incubated for an hour. The formazan (product of the reduction of tetrazolium by viable cells) formed and was dissolved with DMSO and the O.D. at 490 nm, and was measured by an ELISA reader. The MTT level of the cells before drug-treatment was also measured (T0). The % cell-growth (%G) is calculated as: %G = (TD-T0 / TC-T0) x 100(1), where TC or TD represents O.D. readings of control or drug-treated cells. When T0 > TD, then the cytotoxicity (LC) expressed as % of the control is calculated as: %LC = (TD-T0 / T0) × 100(2).

[6] = test system: Human leukemia cells K562; assay: Inhibition of human leukemia K562 cells, cell counting; type: cell-based
Experimental: Method: • 1. Cells: Human leukemia cells K562 in RPMI1640 medium. • 2. Drug: Tig-S (1000x stock solution in DMSO). • 3. Start cells concentration: […] (500000/ml). • 4. Cells were cultured with or without drug for total of four days. • 5. Cell number is doubled after 2 days of incubation. Fresh medium (equal volume, with or without drug) was then added to culture. • 6. Cells were counted every day.

[7] = HepG2 cells, Tig-R 10 ug/ml, single experiments 1-4
[8] = ES2 cells, Tig-R, 2 days, single experiments 2-5

Row | Molecule | combined effect with anti-DR5 antibody ([1]; Capan, Tig-R 2.5 or 5 ug/ml) | % Inhibition Experimental ([1]; R 2.5 ug/ml alone) | % Inhibition Experimental ([1]; R 5 ug/ml alone) | increase of DR5 over DMSO control cells ([2]; HepG2, Tig-R 10 ug/ml) | DR5 band intensity, % of DMSO, Average (%) ([2]; HepG2 cells, Tig-R 10 ug/ml, average of 4 experiments, SD 37) | DR5 Western blot band intensity (Image J) [2, 7] | DR5 band intensity, % of DMSO [2, 7] | combined effect with anti-DR5 antibody ([3]; Jurkat, Tig-R 2.5 ug/ml) | increase of inhibition with Tig-R ([3]; Tig-R 2.5 ug/ml added to antibody) | inhibition of cell growth ([3]; Tig-R 2.5 ug/ml alone, 2 days) | increase of DR5 over DMSO control cells ([4]; ES2, Tig-R 10 ug/ml, 2 days (Experiment 46)) | increase of DR5 ([4]; ES2 cells, 10 ug/ml, 2 days (Experiment 42)) | DR5 band intensity, % of DMSO, Average (%) ([4]; ES2 cells, Tig-R, 2 days, average of 5 experiments) | DR5 Western blot band intensity (Image J) [4, 8] | DR5 band intensity, % of DMSO [4, 8] | IC50 in SW3T3 cells [5] | No growth (IC100), K562 ([6]; beginning on day 2) | IC50, Leukemia K562 cells growth ([6]; cell counting, up to four days)
1 | 24,28-O-Tigloyl-3β,16α, 21β, 22a, 24β, 28-hexahydroxyolean-12-ene [Tig-R] | synergistic | 20% | 29% | 69% | 169% | 31752 and 19291 and 22435 and 33645 | 194% and 122% and 202% and 156% | synergistic | about 20% | 8% | 61% | at least 2 folds | 161% | 25103 and 17941 and 17133 and 19157 | 185% and 200% and 148% and 113% | above 20 ug/ml | – | –
2 | CC=C(C)C(=O)OCC1(C)C(O)CCC2(C)C1CCC1(C)C2CC=C2C3CC(C)(C)C(OC(=O)C(C)=CC)C(O)C3(CO)C(O)CC21C (stereo not drawn) [Tig-S] | – | – | – | – | – | – | – | – | – | – | – | – | – | – | – | – | ≥ 2.5 µg/mL | about 0.6 ug/ml
